Measurements taken from patent EP2065039A1, “Selective inhibition of Polo-like kinase 1” (Max-Planck-Gesellschaft zur Förderung der Wissenschaften …, priority 2007, dated 2009).
Where two headings read alike, the source gives them in different places.

Tests used:
Plk2 PBD = target: T1, Plk2 PBD (Homo sapiens, UniProt Q9NYY3); experiment: Fluorescence polarization specificity assay, Plk2 PBD; type: binding; conditions: Plk2 PBD 130 nM; incubation with inhibitor 1 hr at 22 °C prior to addition of fluorophore-labeled peptide; read-out: apparent IC50
T1 construct: human Plk2 amino acids 355-685; made in house; host or cells: E. coli Rosetta BL21 DE3
T1 sequence (Q9NYY3 355-685): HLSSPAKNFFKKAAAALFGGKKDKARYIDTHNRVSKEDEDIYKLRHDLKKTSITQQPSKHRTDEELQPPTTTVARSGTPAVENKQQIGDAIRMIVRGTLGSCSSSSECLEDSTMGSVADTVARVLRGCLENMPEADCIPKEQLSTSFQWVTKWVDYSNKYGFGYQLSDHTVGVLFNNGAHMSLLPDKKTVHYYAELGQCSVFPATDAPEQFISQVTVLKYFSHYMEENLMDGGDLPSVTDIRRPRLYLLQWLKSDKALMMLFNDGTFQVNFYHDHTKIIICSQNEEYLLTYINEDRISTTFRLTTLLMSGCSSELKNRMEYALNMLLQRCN
From the text: (§1) DNA sequences coding for human Plk1 amino acids 326-603, human Plk2 amino acids 355-685, and human Plk3 amino acids 335-646 comprising the respective polo-box domains were amplified by PCR from plasmid DNA (Plk1) or placenta cDNA (Plk2, Plk3) and cloned into a modified pET28a (Plk1) or a modified pQE70 vector (Plk2 and Plk3). Similarly, nucleotides coding for the […] (FHA) of the kinase Chk2 (amino acids 1-225) and the WW domain of the proline isomerase Pin1 (amino acids 1-162) were amplified by PCR from HeLa S3 and placenta cDNA, respectively, and cloned into a modified pET28a vector. The design of expression plasmids coding for STAT1, STAT3, STATSb, and Lck has been described before and belongs to the knowledge of a skilled person. […] Wild-type and mutant PBD sequences were cloned into a modified pCS2 mammalian expression vector carrying a myc-tag. […]
(§2) Diverse Chemical libraries consisting of 22461 small molecules were tested in a fluorescence polarization assay which analyzes binding between 5-carboxyfluorescein-GPMQST(P03H2)PLNG-OH (final concentration: 10 nM) and the Plk1 polo-box domain (final concentration: 65 nM). […]

Plk3 PBD = target: T2, Plk3 PBD (Homo sapiens, UniProt Q9H4B4); experiment: Fluorescence polarization specificity assay, Plk3 PBD; type: binding; conditions: Plk3 PBD 1875 nM; incubation with inhibitor 1 hr at 22 °C prior to addition of fluorophore-labeled peptide; read-out: apparent IC50
T2 construct: human Plk3 amino acids 335-646; made in house; host or cells: E. coli Rosetta BL21 DE3
T2 sequence (Q9H4B4 335-646): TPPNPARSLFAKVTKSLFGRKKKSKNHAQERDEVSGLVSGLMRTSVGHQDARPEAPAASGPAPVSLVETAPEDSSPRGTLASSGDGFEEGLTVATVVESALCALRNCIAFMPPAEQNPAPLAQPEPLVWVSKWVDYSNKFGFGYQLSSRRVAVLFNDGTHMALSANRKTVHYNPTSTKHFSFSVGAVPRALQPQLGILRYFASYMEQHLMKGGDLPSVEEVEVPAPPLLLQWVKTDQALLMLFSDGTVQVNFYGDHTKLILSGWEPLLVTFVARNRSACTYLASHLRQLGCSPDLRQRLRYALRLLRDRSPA
Experimental: Purified proteins were aliquoted, snap-frozen in liquid nitrogen, and stored at -80°C before use. Binding curve experiments were done for each protein batch before inhibition experiments were started.
The final concentration of buffer components used was: 10 mM Tris, pH 8.0, 50 mM NaCl, 1 mM EDTA, 0.1 % Nonidet P-40, and 10% DMSO. The Plk1 PBD was incubated with compounds for 60 min prior to addition of the fluoropeptide. Screening was performed at room temperature. The following fluorophore-labeled peptides were used for specificity assays: • Plk2: 5-carboxyfluorescein-GPMQTST(PO3H2)PKNG-OH; • Plk3: 5-carboxyfluorescein-GPLATST(PO3H2)PKNG-OH; • Chk2: 5-carboxyfluorescein-GHFDT(PO3H2)YLIRR-OH; • Pin 1: 5-carboxyfluorescein-GWFYS(PO3H2)PRLKK-OH; • STAT1: 5-carboxyfluorescein-GY(PO3H2)DKPHVL-OH; • STAT3: 5-carboxyfluorescein-GY(PO3H2)LPQTV-NH2; • STAT5b: 5-carboxyfluorescein-GY(PO3H2)L VLDKW-OH;Lck:5-carboxyfluorescein-GY(P03H2)EEIP-OH.
Fluorescein-labeled peptides were >95% pure. […] Inhibition curves were fitted using SigmaPlot (SPSS Science Software GmbH).

Chk2 FHA domain = target: T3, Chk2 FHA domain (Homo sapiens, UniProt O96017); experiment: Fluorescence polarization specificity assay, Chk2 FHA domain; type: binding; conditions: Chk2 240 nM; incubation with inhibitor 1 hr at 22 °C prior to addition of fluorophore-labeled peptide; read-out: apparent IC50
T3 construct: kinase Chk2 (amino acids 1-225); made in house; host or cells: E. coli Rosetta BL21 DE3
T3 sequence (O96017 1-225): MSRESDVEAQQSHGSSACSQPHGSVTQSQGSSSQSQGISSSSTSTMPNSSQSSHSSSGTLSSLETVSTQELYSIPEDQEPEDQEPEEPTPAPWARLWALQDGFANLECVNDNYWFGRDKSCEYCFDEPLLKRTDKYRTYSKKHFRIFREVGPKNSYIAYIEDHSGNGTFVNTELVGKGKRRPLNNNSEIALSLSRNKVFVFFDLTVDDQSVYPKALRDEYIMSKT
From the text: as §1, §2

Pin1 WW domain = target: T4, Pin1 WW domain (Homo sapiens, UniProt Q13526); experiment: Fluorescence polarization specificity assay, Pin1 WW domain; type: binding; conditions: Pin1 1000 nM; incubation with inhibitor 1 hr at 22 °C prior to addition of fluorophore-labeled peptide; read-out: apparent IC50
T4 construct: proline isomerase Pin1 (amino acids 1-162); made in house; host or cells: E. coli Rosetta BL21 DE3
T4 sequence (Q13526 1-162): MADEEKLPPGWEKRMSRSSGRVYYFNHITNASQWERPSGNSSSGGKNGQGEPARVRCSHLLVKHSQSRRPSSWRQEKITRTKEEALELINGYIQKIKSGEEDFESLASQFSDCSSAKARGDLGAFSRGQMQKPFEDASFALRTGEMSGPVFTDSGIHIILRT
From the text: as §1, §2

STAT1 SH2 domain = STAT1 SH2 domain (Homo sapiens, UniProt P42224); experiment: Fluorescence polarization specificity assay, STAT1 SH2 domain; type: binding
STAT1 SH2 domain, sequence (P42224 132-713): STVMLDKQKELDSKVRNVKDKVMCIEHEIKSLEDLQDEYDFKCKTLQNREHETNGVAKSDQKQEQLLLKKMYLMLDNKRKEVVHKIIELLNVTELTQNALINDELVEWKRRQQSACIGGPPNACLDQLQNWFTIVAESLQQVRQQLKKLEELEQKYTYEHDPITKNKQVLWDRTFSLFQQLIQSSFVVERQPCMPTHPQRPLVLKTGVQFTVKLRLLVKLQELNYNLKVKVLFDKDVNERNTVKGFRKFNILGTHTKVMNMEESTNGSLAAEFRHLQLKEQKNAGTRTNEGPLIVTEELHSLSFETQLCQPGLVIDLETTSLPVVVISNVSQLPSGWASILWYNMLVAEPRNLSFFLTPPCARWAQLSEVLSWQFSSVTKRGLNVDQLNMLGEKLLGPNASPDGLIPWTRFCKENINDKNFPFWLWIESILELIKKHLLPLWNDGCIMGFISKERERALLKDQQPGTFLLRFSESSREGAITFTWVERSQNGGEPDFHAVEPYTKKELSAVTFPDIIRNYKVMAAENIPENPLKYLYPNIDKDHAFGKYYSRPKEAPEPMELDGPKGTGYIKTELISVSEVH
From the text: as §1, §2

STAT3 SH2 domain = target: T5, STAT3 SH2 domain (Homo sapiens, UniProt P40763); experiment: Fluorescence polarization specificity assay, STAT3 SH2 domain; type: binding; conditions: STAT3 160 nM; incubation with inhibitor 1 hr at 22 °C prior to addition of fluorophore-labeled peptide; read-out: apparent IC50
T5 construct: made in house
T5 sequence (P40763 127-722 limits assumed): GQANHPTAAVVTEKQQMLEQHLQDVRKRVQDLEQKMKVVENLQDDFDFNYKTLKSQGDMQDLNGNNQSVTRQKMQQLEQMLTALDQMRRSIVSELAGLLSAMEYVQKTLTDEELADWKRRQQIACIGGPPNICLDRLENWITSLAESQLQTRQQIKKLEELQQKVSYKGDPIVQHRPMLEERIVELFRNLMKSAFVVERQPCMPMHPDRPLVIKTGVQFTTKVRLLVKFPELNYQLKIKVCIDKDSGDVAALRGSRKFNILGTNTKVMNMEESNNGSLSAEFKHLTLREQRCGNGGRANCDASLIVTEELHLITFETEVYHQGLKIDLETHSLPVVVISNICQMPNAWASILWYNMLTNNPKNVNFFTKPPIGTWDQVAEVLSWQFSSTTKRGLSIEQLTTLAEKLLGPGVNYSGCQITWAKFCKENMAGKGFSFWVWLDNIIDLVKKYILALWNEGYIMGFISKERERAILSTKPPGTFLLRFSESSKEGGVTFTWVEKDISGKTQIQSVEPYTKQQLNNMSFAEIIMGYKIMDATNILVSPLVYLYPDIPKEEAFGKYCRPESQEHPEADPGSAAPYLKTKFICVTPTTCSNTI
From the text: as §1, §2

STAT5 SH2 domain = target: T6, STAT5 SH2 domain (Homo sapiens, UniProt P51692); experiment: Fluorescence polarization specificity assay, STAT5 SH2 domain; type: binding; conditions: STAT5b 110 nM, incubation with inhibitor 1 hr at 22 °C prior to addition of fluorophore-labeled peptide, read-out: apparent IC50
T6 construct: made in house
T6 sequence (P51692 136-703 limits assumed): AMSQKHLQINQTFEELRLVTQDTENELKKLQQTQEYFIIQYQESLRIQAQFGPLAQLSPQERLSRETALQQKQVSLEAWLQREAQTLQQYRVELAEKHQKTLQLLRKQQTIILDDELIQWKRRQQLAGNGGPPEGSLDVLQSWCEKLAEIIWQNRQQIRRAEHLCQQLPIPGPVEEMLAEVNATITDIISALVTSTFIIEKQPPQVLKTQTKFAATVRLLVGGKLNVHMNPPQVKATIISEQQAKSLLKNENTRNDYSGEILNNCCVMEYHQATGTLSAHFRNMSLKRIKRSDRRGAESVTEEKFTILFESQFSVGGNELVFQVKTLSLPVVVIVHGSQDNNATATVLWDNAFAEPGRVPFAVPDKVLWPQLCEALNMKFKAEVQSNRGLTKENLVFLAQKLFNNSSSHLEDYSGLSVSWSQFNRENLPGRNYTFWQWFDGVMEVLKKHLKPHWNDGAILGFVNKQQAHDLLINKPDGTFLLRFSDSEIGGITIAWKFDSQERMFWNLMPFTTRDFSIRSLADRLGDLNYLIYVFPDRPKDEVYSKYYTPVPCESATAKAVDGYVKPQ
From the text: as §1, §2

Lck SH2 domain = Lck SH2 domain (Homo sapiens, UniProt P06239); experiment: Fluorescence polarization specificity assay, Lck SH2 domain; type: binding
Lck SH2 domain, sequence (P06239 127-224): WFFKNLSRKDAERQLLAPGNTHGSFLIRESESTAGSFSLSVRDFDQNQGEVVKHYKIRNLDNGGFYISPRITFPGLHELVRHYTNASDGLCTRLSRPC
From the text: as §1, §2

HeLa cells = experiment: Mitotic arrest / cell cycle analysis in synchronized HeLa cells (Western blot, flow cytometry); type: cell-based; conditions: for mitotic arrest in HeLa cells: HeLa cells synchronized by thymidine block, released into medium containing compound, Figs. 5A-5C
From the text: Figure 1A/B Comparative IC50 inhibition curves with preferred compounds [1] (poloxin) and [14] (thymoquinone, TQ) versus Plk1, Plk2, Plk3, Chk2, Pin1, Stat1, Stat3, Stat5 and Lck. Figure 2 Cellular effects of poloxin and thymoquinone (TQ): Mitotic indices of HeLa cells 14 hrs after release from G1/S block. Figure 3 Distribution of mitotic phases and chromosome congression defects within the metaphase population in the presence of poloxin and thymoquinone (TQ). […]. […] Unsynchronized cells (control), cells synchronized with nocodazol (Noc) or thymidine (Thym), or cells released from thymidine block in the medium containing only DMSO (DMSO) were analyzed for comparison. Figure 5B Analysis of cell cycle distribution by fluorescence-activated flow cytometry. Cells were treated as in 5A. A representative example is shown. Figure 5C Quantification of the cell cycle analysis as shown in 5B (n=3). […]. […] Figure 6B Overexpression of PBD wild-type (wt), but not of the triple mutant PBD FAA, induces mitotic arrest in HeLa cells.
HeLa cells were maintained in Dulbecco's Modified Eagle-Medium (High Glucose) supplemented with 2 mM L-glutamine, 1 mM sodium pyruvate, 10% foetal calf serum, 100 U/mL penicillin, and 100 µg/mL streptomycin (GIBCO and PAA). For the Western blot analysis Fig. 5A, HeLa cells were arrested at the G1/S boundary by thymidine block, and released into thymidine-free medium containing the indicated concentration of compounds at a final DMSO concentration of 0.5%. After 7 hours, medium was replaced with fresh medium which also contained the indicated concentration of compound. […]
For the determination of mitotic indices shown in Fig. 6A, the number of mitotic cells within a population of 200-300 cells was counted. For the determination of the mitotic phase distribution shown in Fig. 6B, populations of approximately 50 mitotic cells were analyzed. […] The DNA content of 30000 cells was determined with a FACScan flow cytometer (BD Biosciences). The data were analyzed with cell cycle analysis Software MODFIT LT 2.0 (Verity Software House). […]

SMILES: CC1=CC(=O)C(C(C)C)=CC1=O [Thymoquinone, thymoquinone]
- IC50 (Plk2 PBD): 1.9 ± 0.1 µM
- IC50 (Plk3 PBD): 22.4 ± 0.8 µM
- IC50 (Chk2 FHA domain): 3.9 ± 0.6 µM
- IC50 (Pin1 WW domain): 20.4 ± 0.9 µM
- IC50 (STAT1 SH2 domain): > 5000 µM
- IC50 (STAT3 SH2 domain): 10.9 ± 0.2 µM
- IC50 (STAT5 SH2 domain): > 0.24 mM
- IC50 (Lck SH2 domain): > 5000 µM
- toxic side effects in cell cycle analysis (HeLa cells; 25 µM, HeLa cells, flow cytometry, quantification of cell cycle profile unfeasible (Fig. 5C)): toxic side effects
- mitotic arrest in HeLa cells (HeLa cells): induce mitotic arrest

SMILES: CC1=CC(=O)C(C(C)C)=CC1=NOC(=O)c1ccccc1C [Poloxin]
- IC50 (Plk2 PBD): 18.7 ± 1.8 µM
- IC50 (Chk2 FHA domain): > 330 µM
- IC50 (Pin1 WW domain): > 215 µM
- IC50 (STAT1 SH2 domain; STAT1 120 nM, incubation with inhibitor 1 hr at 22 °C prior to addition of fluorophore-labeled peptide, read-out: apparent IC50): > 555 µM
- IC50 (STAT3 SH2 domain): > 285 µM
- IC50 (STAT5 SH2 domain; value in mM): > 1 mM
- IC50 (Lck SH2 domain; Lck 40 nM, incubation with inhibitor 1 hr at 22 °C prior to addition of fluorophore-labeled peptide, read-out: apparent IC50): > 5000 µM
- mitotic arrest in HeLa cells (HeLa cells): induce mitotic arrest
